Measurements taken from patent publication US20220112187A1, “PYRAZOLOPYRIDINE AMINE COMPOUNDS FOR THE TREATMENT OF AUTOIMMUNE DISEASE” (Hoffmann-La Roche Inc., priority 2018, published 2022).
pIC50: −log10 of the molar value.

The compounds below were run against T1, human TLR8 (Homo sapiens, UniProt Q9NR97) (assay: HEK293-Blue-hTLR-8 cells assay (SEAP reporter, R848 stimulation)). Settings: HEK293-Blue-hTLR8 cells, R848 ligand, 20 hrs incubation.
T1 sequence (Q9NR97 27-1041): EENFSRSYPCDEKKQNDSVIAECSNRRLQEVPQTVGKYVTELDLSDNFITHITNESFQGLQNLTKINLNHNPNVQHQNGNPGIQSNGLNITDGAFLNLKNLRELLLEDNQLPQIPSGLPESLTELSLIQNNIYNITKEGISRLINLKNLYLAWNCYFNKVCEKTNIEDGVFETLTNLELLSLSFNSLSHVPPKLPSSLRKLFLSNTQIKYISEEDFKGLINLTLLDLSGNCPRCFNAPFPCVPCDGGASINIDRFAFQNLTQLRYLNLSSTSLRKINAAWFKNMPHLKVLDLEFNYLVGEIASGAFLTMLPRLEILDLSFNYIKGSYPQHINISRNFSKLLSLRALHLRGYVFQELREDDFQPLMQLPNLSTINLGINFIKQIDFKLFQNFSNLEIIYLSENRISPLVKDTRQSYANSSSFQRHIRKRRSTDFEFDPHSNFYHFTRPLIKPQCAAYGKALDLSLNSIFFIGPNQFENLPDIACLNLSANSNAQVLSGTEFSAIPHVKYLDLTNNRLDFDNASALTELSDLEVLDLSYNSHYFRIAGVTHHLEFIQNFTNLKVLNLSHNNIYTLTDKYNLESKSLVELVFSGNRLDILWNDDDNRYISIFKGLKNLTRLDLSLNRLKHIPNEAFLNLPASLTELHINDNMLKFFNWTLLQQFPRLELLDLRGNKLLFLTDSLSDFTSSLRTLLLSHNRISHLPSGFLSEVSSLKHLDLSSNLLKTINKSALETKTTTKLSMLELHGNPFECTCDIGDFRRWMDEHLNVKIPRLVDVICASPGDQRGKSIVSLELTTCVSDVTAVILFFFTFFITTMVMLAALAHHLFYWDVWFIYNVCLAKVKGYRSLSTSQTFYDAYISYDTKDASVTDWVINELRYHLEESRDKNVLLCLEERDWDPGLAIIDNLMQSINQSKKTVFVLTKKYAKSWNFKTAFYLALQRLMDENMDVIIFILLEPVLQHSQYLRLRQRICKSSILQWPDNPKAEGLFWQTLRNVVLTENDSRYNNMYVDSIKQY
Type: cell-based
From the text: A stable HEK293-Blue-hTLR-8 cell line was purchased from InvivoGen (Cat. #: hkb-htlr8, San Diego, Calif., USA). These cells were originally designed for studying the stimulation of human TLR8 by monitoring the activation of NF-κB. A SEAP (secreted embryonic alkaline phosphatase) reporter gene was placed under the control of the IFN-β minimal promoter fused to five NF-κB and AP-1-binding sites. The SEAP was induced by activating NF-κB and AP-1 via stimulating HEK-Blue hTLR8 cells with TLR8 ligands. Therefore the reporter expression was declined by TLR8 antagonist under the stimulation of a ligand, such as R848, for incubation of 20 hrs. The cell culture supernatant SEAP reporter activity was determined using QUANTI-Blue™ kit (Cat. #: rep-qb1, Invivogen, San Diego, Ca, USA) at a wavelength of 640 nm, a detection medium that turns purple or blue in the presence of alkaline phosphatase.
HEK293-Blue-hTLR8 cells were incubated at a density of 250,000˜450,000 cells/mL in a volume of 170 μL in a 96-well plate in Dulbecco's Modified Eagle's medium (DMEM) containing 4.5 g/L glucose, 50 U/mL penicillin, […], […], 2 mM L-glutamine, 10% (v/v) heat-inactivated fetal bovine serum with addition of 20 μL test compound in a serial dilution in the presence of final DMSO at 1% and 10 μL of 60 uM R848 in above DMEM, perform incubation under 37° C. in a CO2 incubator for 20 hrs. Then 20 μL of the supernatant from each well was incubated with 180 μL Quanti-blue substrate solution at 37° C. for 2 hrs and the absorbance was read at 620˜655 nm using a spectrophotometer. The signalling pathway that TLR8 activation leads to downstream NF-κB activation has been widely accepted, and therefore similar reporter assay was modified for evaluating TLR8 antagonist.

Row | pIC50 | Compound
1 | 7.16 | C[C@@H]1CN(c2ccc(C#N)n3nccc23)C[C@H](CN2CC3CNCC3C2)O1 (stereo partly drawn) [Example 22, 4-[(2S,6R)-2-(2,3,3a,4,6,6a-hexahydro-1H-pyrrolo[3,4-c]pyrrol-5-ylmethyl)-6-methyl-morpholin-4-yl]pyrazolo[1,5-a]pyridine-7-carbonitrile]
2 | 6.92 | C[C@@H]1CN(c2ccc(C#N)n3nccc23)C[C@H](CN2CCCC3NCCCC32)O1 (stereo partly drawn) [Example 64, 4-[(2S,6R)-2-(3,4,4a,5,6,7,8,8a-octahydro-2H-1,5-naphthyridin-1-ylmethyl)-6-methyl-morpholin-4-yl]pyrazolo[1,5-a]pyridine-7-carbonitrile]
3 | 7.28 | CC1CNCCN1C[C@H]1CN(c2ccc(C#N)n3nccc23)C[C@@H](C)O1 (single isomer, unassigned) [Example 50B]
4 | 6.59 | C[C@@H]1CN(c2ccc(C#N)n3nccc23)C[C@H](CN2CC[C@@H]3CNCC32)O1 (stereo partly drawn) [Example 62, 4-[(2R,6S)-2-methyl-6-[[cis-(3aR,6aR)-3,3a,4,5,6,6a-hexahydro-2H-pyrrolo[3,4-b]pyrrol-1-yl]methyl]morpholin-4-yl]pyrazolo[1,5-a]pyridine-7-carbonitrile]
5 | 6.72 | C[C@@H]1CN(c2ccc(C#N)n3nccc23)C[C@H](CN2CCC3(CCCNC3)CC2)O1 [Example 27, 4-[(2S,6R)-2-(2,9-diazaspiro[5.5]undecan-9-ylmethyl)-6-methyl-morpholin-4-yl]pyrazolo[1,5-a]pyridine-7-carbonitrile]
6 | 6.74 | C[C@@H]1CN(c2ccc(C#N)n3nccc23)C[C@H](CN2CCC(N3CCNCC3)CC2)O1 [Example 39, 4-[(2R,6S)-2-methyl-6-[(4-piperazin-1-yl-1-piperidyl)methyl]morpholin-4-yl]pyrazolo[1,5-a]pyridine-7-carbonitrile]
7 | 7.05 | C[C@@H]1CN(c2ccc(C#N)n3nccc23)C[C@H](CN2CC3CCC(C2)C3N)O1 (stereo partly drawn) [Example 36, 4-[(2S,6R)-2-[(8-amino-3-azabicyclo[3.2.1]octan-3-yl)methyl]-6-methyl-morpholin-4-yl]pyrazolo[1,5-a]pyridine-7-carbonitrile]
8 | 6.46 | C[C@@H]1CN(c2ccc(C#N)n3nccc23)C[C@H](CN2CCC3(CCNCC3)C2)O1 [Example 18, 4-[(2S,6R)-2-(2,8-diazaspiro[4.5]decan-2-ylmethyl)-6-methyl-morpholin-4-yl]pyrazolo[1,5-a]pyridine-7-carbonitrile]
9 | 7.24 | C[C@@H]1CN(c2ccc(C#N)n3nccc23)C[C@H](CN2CCC(N)CC2)O1 [Example 17, 4-[(2S,6R)-2-[(4-amino-1-piperidyl)methyl]-6-methyl-morpholin-4-yl]pyrazolo[1,5-a]pyridine-7-carbonitrile]
10 | 6.96 | C[C@@H]1CN(c2ccc(C#N)n3nccc23)C[C@H](CN2CCC3(CCN3)CC2)O1 [Example 48, 4-[(2S,6R)-2-(1,7-diazaspiro[3.5]nonan-7-ylmethyl)-6-methyl-morpholin-4-yl]pyrazolo[1,5-a]pyridine-7-carbonitrile]
11 | 7.43 | C[C@@H]1CN(c2ccc(C#N)n3nccc23)C[C@H](CN2CCN[C@H](c3ccccc3)C2)O1 [Example 38, 4-[(2R,6S)-2-methyl-6-[[(3R)-3-phenylpiperazin-1-yl]methyl]morpholin-4-yl]pyrazolo[1,5-a]pyridine-7-carbonitrile]
12 | 6.21 | C[C@@H]1CN(c2ccc(C#N)n3nccc23)C[C@H](CN2CC3(CCNC3)CC2=O)O1 (stereo partly drawn) [Example 20, 4-[(2R,6R)-2-methyl-6-[(3-oxo-2,7-diazaspiro[4.4]nonan-2-yl)methyl]morpholin-4-yl]pyrazolo[1,5-a]pyridine-7-carbonitrile]
13 | 6.74 | C[C@@H]1CN(c2ccc(C#N)n3nccc23)C[C@H](CN2CCN(C)CC2)O1 [Example 15, 4-[(2R,6S)-2-methyl-6-[(4-methylpiperazin-1-yl)methyl]morpholin-4-yl]pyrazolo[1,5-a]pyridine-7-carbonitrile]
14 | 7.59 | C[C@@H]1CN(c2ccc(C#N)n3nccc23)C[C@H](CN2CCC(N3CCCCCC3)CC2)O1 [Example 4, 4-[(2S,6R)-2-[[4-(azepan-1-yl)-1-piperidyl]methyl]-6-methyl-morpholin-4-yl]pyrazolo[1,5-a]pyridine-7-carbonitrile]
15 | 7.60 | C[C@@H]1CN(c2ccc(C#N)n3nccc23)C[C@H](CN2CCCC3(CCNC3)C2)O1 (stereo partly drawn) [Example 44, 4-[(2S,6R)-2-(2,7-diazaspiro[4.5]decan-7-ylmethyl)-6-methyl-morpholin-4-yl]pyrazolo[1,5-a]pyridine-7-carbonitrile]
16 | 7.39 | C[C@@H]1CN(c2ccc(C#N)n3nccc23)C[C@H](CN2CCCC3(CCCNC3)C2)O1 (stereo partly drawn) [Example 23, 4-[(2S,6R)-2-(2,8-diazaspiro[5.5]undecan-2-ylmethyl)-6-methyl-morpholin-4-yl]pyrazolo[1,5-a]pyridine-7-carbonitrile]
17 | 7.96 | C[C@@H]1CN(c2ccc(C#N)n3ncc(F)c23)C[C@H](CN2CCCC3(CCNC3)C2)O1 (stereo partly drawn) [Example 68, 3-fluoro-4-[(2S,6R)-2-(2,7-diazaspiro[4.5]decan-7-ylmethyl)-6-methyl-morpholin-4-yl]pyrazolo[1,5-a]pyridine-7-carbonitrile]
18 | 6.64 | C[C@@H]1CN(c2ccc(C#N)n3nccc23)C[C@H](CN2CC3CCCNC3C2)O1 (stereo partly drawn) [Example 45, 4-[(2S,6R)-2-(1,2,3,4,4a,5,7,7a-octahydropyrrolo[3,4-b]pyridin-6-ylmethyl)-6-methyl-morpholin-4-yl]pyrazolo[1,5-a]pyridine-7-carbonitrile]
19 | 7.59 | C[C@@H]1CN(c2ccc(C#N)n3ncc(F)c23)C[C@H](CN2CCC3(CCCNC3)C2)O1 (stereo partly drawn) [Example 69, 3-fluoro-4-[(2S,6R)-2-(2,9-diazaspiro[4.5]decan-2-ylmethyl)-6-methyl-morpholin-4-yl]pyrazolo[1,5-a]pyridine-7-carbonitrile]
20 | 6.21 | C[C@@H]1CN(c2ccc(C#N)n3nccc23)C[C@H](CN2CC3(CCNCC3)C2)O1 [Example 24, 4-[(2S,6R)-2-(2,7-diazaspiro[3.5]nonan-2-ylmethyl)-6-methyl-morpholin-4-yl]pyrazolo[1,5-a]pyridine-7-carbonitrile]
21 | 7.28 | C[C@@H]1CN(c2ccc(C#N)n3nccc23)C[C@H](CN2CCC(C)(N)CC2)O1 [Example 29, 4-[(2S,6R)-2-[(4-amino-4-methyl-1-piperidyl)methyl]-6-methyl-morpholin-4-yl]pyrazolo[1,5-a]pyridine-7-carbonitrile]
22 | 7.42 | C[C@@H]1CN(c2ccc(C#N)n3ncc(F)c23)C[C@H](CN2CCCC3(CCNCC3)C2)O1 [Example 67, 4-[(2S,6R)-2-(2,9-diazaspiro[5.5]undecan-2-ylmethyl)-6-methyl-morpholin-4-yl]-3-fluoro-pyrazolo[1,5-a]pyridine-7-carbonitrile]
23 | 6.06 | C[C@@H]1CN(c2ccc(C#N)n3nccc23)C[C@H](CN2CCC23CNC3)O1 [Example 55, 4-[(2S,6R)-2-(1,6-diazaspiro[3.3]heptan-1-ylmethyl)-6-methyl-morpholin-4-yl]pyrazolo[1,5-a]pyridine-7-carbonitrile]
24 | 6.47 | C[C@@H]1CN(c2ccc(C#N)n3nccc23)C[C@H](CN2CCC3(CN(C)CCO3)C2)O1 (stereo partly drawn) [Example 76, 4-[(2R,6S)-2-methyl-6-[(9-methyl-6-oxa-2,9-diazaspiro[4.5]decan-2-yl)methyl]morpholin-4-yl]pyrazolo[1,5-a]pyridine-7-carbonitrile]
